Results from patent US4508663A, “Process for preparing thiosulfenamide derivatives of N-phosphonomethylglycinonitriles” (Monsanto Company, priority 1983, dated 1985).

Columns and labels:
Experiment in all cases: post-emergence herbicidal activity, greenhouse
Assay type in all cases: in vivo
Crabgrass = details: Table II, 2 WAT
Description: (§1) A good grade of top soil is placed in aluminum pans having holes in the bottom and compacted to a depth of 0.95 to 1.27 cm. from the top of the pan. A predetermined number of seeds of each of several dicotyledonous and monocotyledonous annual plant species and/or vegetative propagules for the perennial plant species are placed on the soil and pressed into the soil surface. The seeds and/or vegetative propagules are covered with soil and leveled. The pans are then placed on a sand bench in the greenhouse and watered from below as needed. After the plants reach the desired age (two to three weeks), each pan except for the control pans is removed individually to a spraying chamber and sprayed by means of an atomizer operating at a positive air pressure of approximately 1.46 kg/cm^2 absolute. The atomizer contains 6 ml. of a solution or suspension of the chemical. In that 6 ml., is an amount of a cyclohexanone emulsifying agent mixture to give a spray solution or suspension which contains about 0.4% by weight of the emulsifier. The spray solution or suspension contains a sufficient amount of the candidate chemical in order to give application rates corresponding to those set forth in the tables. The spray solution is prepared by taking an aliquot of a 1.0% by weight stock solution or suspension of the candidate chemical in an organic solvent such as acetone or tetrahydrofuran or in water. The emulsifying agent employed is a mixture comprising 35 weight percent butylamine dodecylbenzene sulfonate and 65 weight percent of a tall oil ethylene oxide condensate having about 11 moles of ethylene oxide per mole of tall oil. The pans are returned to the greenhouse and watered as before and the injury to the plants as compared to the control is observed at approximately two and four weeks as indicated in the tables under WAT and the results recorded. In some instances, the two-week observations are omitted.
(§2) The post-emergence herbicidal activity index used in Table I is as follows: […]

Rice = details: Table II, 2 WAT
Description: as §1, §2

Panicum Spp = details: Table II, 2 WAT
Description: as §1, §2

Wheat = details: Table II, 2 WAT
Description: as §1, §2

Quackgrass = details: Table I, 4 WAT
Description: as §1, §2

Wild Buckwheat = details: Table II, 2 WAT
Description: as §1, §2

Velvetleaf = tested on: Velvetleaf
Description: as §1, §2

Yellow Nutsedge = details: Table I, 4 WAT
Description: as §1, §2

Smartweed = tested on: Smartweed
Description: as §1, §2

Johnsongrass = details: Table I, 4 WAT
Description: as §1, §2

Hemp Sesbania = details: Table II, 2 WAT
Description: as §1, §2

Lambsquarters = tested on: Lambsquarters
Description: as §1, §2

Cocklebur = tested on: Cocklebur
Description: as §1, §2

Sorghum = details: Table II, 2 WAT
Description: as §1, §2

Morningglory = tested on: Morningglory
Description: as §1, §2

Sugar Beet = details: Table II, 2 WAT
Description: as §1, §2

Soybean = details: Table II, 2 WAT
Description: as §1, §2

Barnyardgrass = tested on: Barnyardgrass
Description: as §1, §2

Downy Brome = tested on: Downy Brome
Description: as §1, §2

## N#CCN(CP(=O)(Oc1ccccc1)Oc1ccccc1)SSc1ccc(Cl)cc1 [XI]
Crabgrass; 1.12 kg/h
  post-emergence herbicidal activity index: 0 (0-24% control)
Crabgrass; 5.6 kg/h
  post-emergence herbicidal activity index: 3 (75-99% control)
Rice; 1.12 kg/h
  post-emergence herbicidal activity index: 0 (0-24% control)
Rice; 5.6 kg/h
  post-emergence herbicidal activity index: 1 (25-49% control)
Panicum Spp; 1.12 kg/h
  post-emergence herbicidal activity index: 0 (0-24% control)
Panicum Spp; 5.6 kg/h
  post-emergence herbicidal activity index: 1 (25-49% control)
Wheat; 1.12 kg/h
  post-emergence herbicidal activity index: 0 (0-24% control)
Wheat; 5.6 kg/h
  post-emergence herbicidal activity index: 2 (50-74% control)
Quackgrass; 5.6 kg/h
  post-emergence herbicidal activity index: 0 (0-24% control)
Quackgrass; 11.2 kg/h
  post-emergence herbicidal activity index: 2 (50-74% control)
Wild Buckwheat; 1.12 kg/h
  post-emergence herbicidal activity index: 0 (0-24% control)
Wild Buckwheat; 5.6 kg/h
  post-emergence herbicidal activity index: 3 (75-99% control)
Velvetleaf; Table I, 4 WAT, 5.6 kg/h
  post-emergence herbicidal activity index: 0 (0-24% control)
Velvetleaf; Table I, 4 WAT, 11.2 kg/h
  post-emergence herbicidal activity index: 2 (50-74% control)
Velvetleaf; Table II, 2 WAT, 1.12 kg/h
  post-emergence herbicidal activity index: 0 (0-24% control)
Velvetleaf; Table II, 2 WAT, 5.6 kg/h
  post-emergence herbicidal activity index: 3 (75-99% control)
Yellow Nutsedge; 5.6 kg/h
  post-emergence herbicidal activity index: 0 (0-24% control)
Yellow Nutsedge; 11.2 kg/h
  post-emergence herbicidal activity index: 1 (25-49% control)
Smartweed; Table I, 4 WAT, 5.6 kg/h
  post-emergence herbicidal activity index: 0 (0-24% control)
Smartweed; Table I, 4 WAT, 11.2 kg/h
  post-emergence herbicidal activity index: 2 (50-74% control)
Smartweed; Table II, 2 WAT, 1.12 kg/h
  post-emergence herbicidal activity index: 0 (0-24% control)
Smartweed; Table II, 2 WAT, 5.6 kg/h
  post-emergence herbicidal activity index: 1 (25-49% control)
Johnsongrass; 5.6 kg/h
  post-emergence herbicidal activity index: 0 (0-24% control)
Johnsongrass; 11.2 kg/h
  post-emergence herbicidal activity index: 2 (50-74% control)
Hemp Sesbania; 1.12 kg/h
  post-emergence herbicidal activity index: 0 (0-24% control)
Hemp Sesbania; 5.6 kg/h
  post-emergence herbicidal activity index: 1 (25-49% control)
Lambsquarters; Table I, 4 WAT, 5.6 kg/h
  post-emergence herbicidal activity index: 0 (0-24% control)
Lambsquarters; Table I, 4 WAT, 11.2 kg/h
  post-emergence herbicidal activity index: 4 (100% control)
Lambsquarters; Table II, 2 WAT, 1.12 kg/h
  post-emergence herbicidal activity index: 0 (0-24% control)
Lambsquarters; Table II, 2 WAT, 5.6 kg/h
  post-emergence herbicidal activity index: 3 (75-99% control)
Cocklebur; Table I, 4 WAT, 5.6 kg/h
  post-emergence herbicidal activity index: 0 (0-24% control)
Cocklebur; Table I, 4 WAT, 11.2 kg/h
  post-emergence herbicidal activity index: 3 (75-99% control)
Cocklebur; Table II, 2 WAT, 1.12 kg/h
  post-emergence herbicidal activity index: 0 (0-24% control)
Cocklebur; Table II, 2 WAT, 5.6 kg/h
  post-emergence herbicidal activity index: 3 (75-99% control)
Sorghum; 1.12 kg/h
  post-emergence herbicidal activity index: 0 (0-24% control)
Sorghum; 5.6 kg/h
  post-emergence herbicidal activity index: 1 (25-49% control)
Morningglory; Table I, 4 WAT, 5.6 kg/h
  post-emergence herbicidal activity index: 0 (0-24% control)
Morningglory; Table I, 4 WAT, 11.2 kg/h
  post-emergence herbicidal activity index: 1 (25-49% control)
Morningglory; Table II, 2 WAT, 1.12 kg/h
  post-emergence herbicidal activity index: 0 (0-24% control)
Morningglory; Table II, 2 WAT, 5.6 kg/h
  post-emergence herbicidal activity index: 1 (25-49% control)
Sugar Beet; 1.12 kg/h
  post-emergence herbicidal activity index: 1 (25-49% control)
Sugar Beet; 5.6 kg/h
  post-emergence herbicidal activity index: 3 (75-99% control)
Soybean; 1.12 kg/h
  post-emergence herbicidal activity index: 0 (0-24% control)
Soybean; 5.6 kg/h
  post-emergence herbicidal activity index: 1 (25-49% control)
Barnyardgrass; Table I, 4 WAT, 5.6 kg/h
  post-emergence herbicidal activity index: 0 (0-24% control)
Barnyardgrass; Table I, 4 WAT, 11.2 kg/h
  post-emergence herbicidal activity index: 3 (75-99% control)
Barnyardgrass; Table II, 2 WAT, 1.12 kg/h
  post-emergence herbicidal activity index: 0 (0-24% control)
Barnyardgrass; Table II, 2 WAT, 5.6 kg/h
  post-emergence herbicidal activity index: 1 (25-49% control)
Downy Brome; Table I, 4 WAT, 5.6 kg/h
  post-emergence herbicidal activity index: 0 (0-24% control)
Downy Brome; Table I, 4 WAT, 11.2 kg/h
  post-emergence herbicidal activity index: 1 (25-49% control)
Downy Brome; Table II, 2 WAT, 1.12 kg/h
  post-emergence herbicidal activity index: 0 (0-24% control)
Downy Brome; Table II, 2 WAT, 5.6 kg/h
  post-emergence herbicidal activity index: 1 (25-49% control)
